Patent US20160030498A1, “HERBAL COMPOSITIONS FOR TREATING PAIN AND SKIN DISORDERS” (RUPAK ENTERPRISES (P) LIMITED, priority 2013, published 2016)

Legend:
LOX = LOX inhibition assay; assay type: biochemical
[1] = test system: proliferative dermatological disorders; test: Use in human subjects suffering from dermatological disorders; assay type: in vivo; conditions: humans
From the text: Another embodiment of the present invention refers to method of use of a composition comprising of Acetyl-11-keto-beta-boswellic acid (BOSWELLIC ACID) and Bakuchiol for alleviation and management of skin rashes, itching, and boils resulting from skin proliferative disorders, specifically psoriasis, atopic dermatitis. For example, the method of use disclosed herein may be administered alongside steroidal therapy during the steroid dose tapering phase, followed by standalone administration of the combination provides complete remission of skin conditions, and is maintained that upon continuance of recommended dosage. In certain embodiments the skin disorder may be resulting from irritants, allergens, trigger, or autoimmune reasons, and the combination defined herein is effective in all of the above. The present invention includes the formulation of a Bakuchiol and BOSWELLIC ACID combination in an oral dosage form or, lotion, cream, ointment which can be applied topically.

Row | Compound | IC50 (LOX) [µM] | Remission of proliferative dermatological conditions [1]
1 | C=C[C@@](C)(/C=C/c1ccc(O)cc1)CCC=C(C)C [Bakuchiol] | 3.1 | –
2 | 3-o-Acetyl-11-keto-beta-boswellic acid | – | substantial remission
